In ChEMBL document CHEMBL3045221, “A 2D image-based approach for modelling some glycogen synthase kinase 3 inhibitors” (Med Chem Res, 2007):

Target: Glycogen synthase kinase-3 beta (Homo sapiens, UniProt P49841)
Type: cell-based, Sf9
Description: Inhibition of GSK3beta (unknown origin) expressed in Sf9 cells using GS1 as substrate and [gamma32]ATP after 30 min by scinitllation counting

Sequence of Glycogen synthase kinase-3 beta (P49841 whole entry): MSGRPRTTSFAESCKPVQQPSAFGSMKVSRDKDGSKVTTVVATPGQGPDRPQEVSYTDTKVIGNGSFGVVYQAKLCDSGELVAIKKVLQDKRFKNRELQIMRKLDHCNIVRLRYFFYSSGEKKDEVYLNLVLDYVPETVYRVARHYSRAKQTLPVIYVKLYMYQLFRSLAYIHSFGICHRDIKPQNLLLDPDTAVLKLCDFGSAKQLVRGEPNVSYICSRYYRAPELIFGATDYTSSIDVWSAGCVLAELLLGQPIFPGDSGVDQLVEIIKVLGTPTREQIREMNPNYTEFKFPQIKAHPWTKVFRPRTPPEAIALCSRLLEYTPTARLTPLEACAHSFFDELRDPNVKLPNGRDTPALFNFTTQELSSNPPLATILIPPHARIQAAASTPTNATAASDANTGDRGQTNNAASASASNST

| Compound | IC50 [nM] | Ki [nM] |
| --- | --- | --- |
| CN1CCN(c2cnc(NCCNc3ccc([N+](=O)[O-])c(N)n3)nc2-c2ccc(Cl)cc2Cl)C(=O)C1 | 3.98 | – |
| O=C1Nc2ccc(Br)cc2/C1=C1/Nc2ccccc2/C1=N\O [INDIRUBIN 2] | 5.01 | – |
| CC(=O)O/N=C1/C(=C2/C(=O)Nc3cc(Cl)c(Cl)cc32)Nc2ccccc21 [INDIRUBIN 1] | 3.98 | – |
| O=C1NC(=O)C(c2cncc3ccoc23)=C1c1cn2c3c(cccc13)CN(C(=O)N1CCOCC1)CC2 [BISARYLMALEIMIDE 2] | 0.794 | – |
| CN(C)CCNC(=O)c1ccc(/C=N/Nc2ncnc3c2cnn3-c2cccc3[nH]cnc23)cc1 [PYRAZOLOPYRIMIDINE 1] | 1.58 | – |
| O=C1NC(=O)C2=C1c1cn(c3ccccc13)CCOCCOCCOCCn1cc2c2ccccc21 [INDOLYLYLMALEIMIDE 2] | 21.9 | – |

Results, then the compound that gave them:

| IC50 [nM] | Ki [nM] | Compound |
| --- | --- | --- |
| 129 | – | CC(=O)NC1=NC(=O)/C(=C2\CCNC(=O)c3c2cc(Br)n3C(C)=O)N1 [HYMENIALDISINE 2] |
| – | 12 | COc1ccc(Nc2nccc(-c3cnn4ncccc34)n2)cc1OC [PYRAZOLOPYRIDAZINE 2] |
| 0.708 | – | O=C1NC(=O)C(c2cnc3cccnn23)=C1c1cn2c3c(cccc13)CN(C(=O)N1CCCCC1)CC2 [BISARYLMALEIMIDE 1] |
